Measured values published in patent US8916597B2, “Use of pyraclostrobin as safener for triticonazole for controlling harmful fungi” (BASF SE, priority 2005, dated 2014).

System: bentgrass
Assay: Seed treatment of bentgrass: ground coverage by emerged plants (safener action)
Type: in vivo
Method: Seeds were treated with the two active compounds individually or with mixtures of both active compounds, and the development of the plants was then observed. When the mixtures were used, the negative effects of one or both mixing partners in the case of individual application were, if at all, observed at a reduced level.
Seeds of bentgrass were seed-treated with the products and concentrations listed. Triticonazol and Pyraclostrobin were used as 200 g/l FS-formulation.
Treated sees were planted at the day of treatment and then kept under humid conditions in the greenhouse. 9 days after plating the ground coverage by emerged plants were estimated in percentage.

Q: Which results are given for `COC(=O)N(OC)c1ccccc1COc1ccn(-c2ccc(Cl)cc2)n1` [Pyraclostrobin, pyraclostrobin]?
A: % covered ground (10 g a.i./100 kg seed of each active compound (200 g/l FS-formulation), greenhouse, humid conditions, ground coverage by emerged plants estimated 9 days after planting, untreated 8.5%): 13.3%; safener action: negative effect of triticonazole on plant development (mixture versus individual application): negative effect of TTZ can be compensated
